Target: T1, human pancreas Glucokinase (GK) (Homo sapiens, UniProt P35557)
T1 construct: His6; made in house; host or cells: Escherichia coli
T1 sequence (P35557 1-465): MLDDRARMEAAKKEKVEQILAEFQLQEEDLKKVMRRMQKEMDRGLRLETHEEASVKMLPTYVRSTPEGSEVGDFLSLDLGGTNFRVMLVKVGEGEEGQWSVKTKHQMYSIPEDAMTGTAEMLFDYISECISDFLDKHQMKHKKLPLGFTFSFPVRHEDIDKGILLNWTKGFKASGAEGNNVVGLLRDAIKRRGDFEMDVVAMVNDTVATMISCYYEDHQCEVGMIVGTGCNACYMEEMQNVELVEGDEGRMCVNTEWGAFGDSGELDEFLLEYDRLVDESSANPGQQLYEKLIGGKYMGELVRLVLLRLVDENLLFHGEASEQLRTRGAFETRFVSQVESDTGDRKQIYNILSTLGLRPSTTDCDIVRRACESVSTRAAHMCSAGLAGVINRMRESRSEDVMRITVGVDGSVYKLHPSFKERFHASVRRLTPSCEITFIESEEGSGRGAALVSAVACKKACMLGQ
Test: Glucokinase enzyme assay, pancreas GK
Format: biochemical
Details: for EC50: concentration that produces 50% activation above vehicle control; for EC100%: concentration that produces 100% activation above vehicle control; for activation at 50 µM: increase in GK activity above vehicle control, compound 50 μM, 12 mM glucose; for % Activation @ 5 μM: cell states @ 5 μM instead of the head's 50 μM
Text: An enzymatic Glucokinase (GK) assay using purified recombinant human liver/pancreas enzyme was used to evaluate the effects of potential small molecule modulators.
In this assay, GK catalyzes glucose phosphorylation in the presence of ATP. The product of this reaction, glucose-6-phosphate, was then oxidized by an excess of glucose-6-phosphate dehydrogenase to produce gluconate-6-phosphate with concomitant reduction of nicotinamide adenine dinucleotide (NAD). […] Human GK (Liver/Pancreas) was expressed in Escherichia coli as a (His) 6-tagged fusion protein and was purified by metal chelate affinity chromatography. The assay was performed in a final incubation volume of 80 μl in a 96-well clear low UV absorption plates. The incubation mixture consisted of 25 mM HEPES, 2 mM MgSO4, 1 mM dithiothreotol (DTT), 1 mg/mL bovine serum albumin (BSA), 1 mM ATP, 1 mM NAD, and 12 mM glucose, 10 units per mL glucose-6-phosphate dehydrogenase, and +/−300 ng per mL GK. For determination of the affinity (Km) and Vmax, different concentrations of glucose ranging from 0.5 mM to 40 mM were used in the assay; see Grimsby, J., Sarabu, R.; Grippo, J. F.; et. al. Science 2003, 301, 370-373. […] EC50% (μM) was calculated as the effective concentration of the compound that produces 50% activation above the vehicle control, and EC100% (μM) was calculated as the effective concentration of the compound that produces 100% activation above the vehicle control.

Row | SMILES | EC50 [nM] | EC100% [µM] | activation at 50 µM [%] | % Activation @ 5 μM
1 | O=C(CCC1c2c(F)cccc2C(=O)N1Cc1ccc(F)cc1)Nc1cc2ccccc2cn1 (stereo not shown) [Compound 29, 3-[7-Fluoro-2-(4-fluoro-benzyl)-3-oxo-2,3-dihydro-1H-isoindol-1-yl]-N-isoquinolin-3-yl-propionamide] | 46 | 0.32 | 212 | 
2 | COCOCc1ccc(NC(=O)CCC2c3c(F)cccc3C(=O)N2Cc2ccc(F)cc2)nc1 (stereo not shown) [Compound 30, 3-[7-Fluoro-2-(4-fluoro-benzyl)-3-oxo-2,3-dihydro-1H-isoindol-1-yl]-N-(5methoxymethoxymethyl-pyridin-2-yl)-propionamide] | 230 | 1.2 | 175 | 
3 | O=C(CCC1c2c(F)cccc2C(=O)N1Cc1ccc(F)cc1)Nc1ccc(-c2ccccc2)cn1 (stereo not shown) [Compound 31, 3-[7-Fluoro-2-(4-fluoro-benzyl)-3-oxo-2,3-dihydro-1H-isoindol-1-yl]-N-(5-phenyl-pyridin-2-yl)-propionamide] | 1900 | 300 | 64.1 | 
4 | O=C(CCC1c2c(F)cccc2C(=O)N1Cc1ccc(F)cc1)Nc1ccc(Br)cn1 (stereo not shown) [Compound 32, N-(5-Bromo-pyridin-2-yl)-3-[7-fluoro-2-(4-fluoro-benzyl)-3-oxo-2,3-dihydro-1H-isoindol-1-yl]-propionamide] | 13 | 0.39 | 147 | 
5 | O=C(CCC1c2cccc(Cl)c2C(=O)N1Cc1ccc(F)cc1)Nc1ccccn1 (stereo not shown) [Compound 35, 3-[4-chloro-2-(4-fluoro-benzyl)-3-oxo-2,3-dihydro-1H-isoindol-1-yl]-N-pyridin-2-yl-propionamide] | 230 | 0.75 | 306 | 
6 | CC(=O)c1ccc(NC(=O)CCC2c3c(F)cccc3C(=O)N2Cc2ccc(F)cc2)nc1 (stereo not shown) [Compound 37, N-(5-Acetyl-pyridin-2-yl)-3-[7-fluoro-2-(4-fluoro-benzyl)-3-oxo-2,3-dihydro-1H-isoindol-1-yl]-propionamide] | 54 | 0.225 | 259 | 
7 | O=C(CCC1c2cccc(Cl)c2C(=O)N1Cc1ccc(F)cc1)Nc1ccc(Br)cn1 (stereo not shown) [Compound 38, N-(5-Bromo-pyridin-2-yl)-3-[4-chloro-2-(4-fluoro-benzyl)-3-oxo-2,3-dihydro-1H-isoindol-1-yl]-propionamide] | 173 | 0.615 | 309 | 
8 | O=C(CCC1c2c(F)cccc2C(=O)N1Cc1ccc(F)cc1)Nc1cccc[n+]1[O-] (stereo not shown) [Compound 40, 3-[7-Fluoro-2-(4-fluoro-benzyl)-3-oxo-2,3-dihydro-1H-isoindol-1-yl]-N-(1-oxy-pyridin-2-yl)-propionamide] |  |  | 52.3 | 
9 | O=C(CCC1c2c(F)cccc2C(=O)N1Cc1ccc(-n2cccc2)cc1)Nc1ccc(F)cn1 (stereo not shown) [Compound 42, 3-[7-Fluoro-3-oxo-2-(4-pyrol-1-yl-benzyl)-2,3-dihydro-1H-isoindol-1-yl]-N-(5-fluoro-pyridin-2-yl)-propionamide] | 182 | 1.7 | 168 | 
10 | O=C(CCC1c2c(F)cccc2C(=O)N1Cc1ccc(F)cc1)Nc1ccc(Cl)nn1 (stereo not shown) [Compound 43, N-(6-Chloro-pyridazin-3-yl)-3-[7-fluoro-2-(4-fluoro-benzyl)-3-oxo-2,3-dihydro-1H-isoindol-1-yl]-Propionamide] | 629 | 5.2 | 152 | 
11 | O=C(CCC1c2c(F)cccc2C(=O)N1Cc1ccc(F)cc1)Nc1ccc(C(=O)OCc2ccccc2)cn1 (stereo not shown) [Compound 46, 6-{3-[7-Fluoro-2-(4-fluoro-benzyl)-3-oxo-2,3-dihydro-1H-isoindol-1-yl]-propionylamino}-nicotinic acid benzyl ester] | 219 | 1.2 |  | 133 @ 5 μM %

Continued, values first:

Row | EC50 [nM] | EC100% [µM] | activation at 50 µM [%] | % Activation @ 5 μM | SMILES
12 | 130 | 6.3 | 120 |  | O=C(CCC1c2c(F)cccc2C(=O)N1Cc1ccc(F)cc1)Nc1ccc2ccccc2n1 (stereo not shown) [Compound 28, 3-[7-Fluoro-2-(4-fluoro-benzyl)-3-oxo-2,3-dihydro-1H-isoindol-1-yl]-N-quinolin-2-yl-propionamide]
13 | 488 | 4.5 | 177 |  | O=C(CCC1c2c(F)cccc2C(=O)N1Cc1ccc(F)cc1)Nc1ccc(-c2ccc(F)cc2)cn1 (stereo not shown) [Compound 33, 3-[7-Fluoro-2-(4-fluoro-benzyl)-3-oxo-2,3-dihydro-1H-isoindol-1-yl]-N-[5-(4-fluoro-Phenyl)-pyridin-2-yl]-propionamide]
14 | 407 | 4.3 | 142 |  | NS(=O)(=O)c1ccc(NC(=O)CCC2c3c(F)cccc3C(=O)N2Cc2ccc(F)cc2)nc1 (stereo not shown) [Compound 34, 3-[7-Fluoro-2-(4-fluoro-benzyl)-3-oxo-2,3-dihydro-1H-isoindol-1-yl]-N-(5-sulfamoyl-pyridin-2-yl)-propionamide]
15 | 143 | 0.411 | 342 |  | O=C(CCC1c2c(Cl)cccc2C(=O)N1Cc1ccc(F)cc1)Nc1ccccn1 (stereo not shown) [Compound 36, 3-[7-Chloro-2-(4-fluoro-benzyl)-3-oxo-2,3-dihydro-1H-isoindol-1-yl]-N-pyridin-2-yl-propionamide]
16 | 433 | 2.5 | 206 |  | O=C(CCC1c2c(Cl)ccc(Cl)c2C(=O)N1Cc1ccc(F)cc1)Nc1ccccn1 (stereo not shown) [Compound 39, 3-[4,7-Dichloro-2-(4-fluoro-benzyl)-3-oxo-2,3-dihydro-1H-isoindol-1-yl]-N-pyridin-2-yl-propionamide]
17 | 54 | 0.48 | 191 |  | Cc1ccc(NC(=O)CCC2c3c(F)cccc3C(=O)N2Cc2ccc(F)cc2)nc1 (stereo not shown) [Compound 41, 3-[7-Fluoro-2-(4-fluoro-benzyl)-3-oxo-2,3-dihydro-1H-isoindol-1-yl]-N-(5-methyl-pyridin-2-yl)-propionamide]
18 | 71 | 0.375 |  | 168 @ 5 μM % | O=C(CCC1c2c(F)cccc2C(=O)N1Cc1ccc(F)cc1)Nc1ccc(Cl)cn1 (stereo not shown) [Compound 44, N-(5-Chloro-pyridin-2-yl)-3-[7-fluoro-2-(4-fluoro-benzyl)-3-oxo-2,3-dihydro-1H-isoindol-1-yl]-propionamide]
19 | 125 | 0.813 |  | 138 @ 5 μM % | CCOC(=O)/C=C/c1ccc(NC(=O)CCC2c3c(F)cccc3C(=O)N2Cc2ccc(F)cc2)nc1 (stereo not shown) [Compound 45, 3-(6-{3-[7-Fluoro-2-(4-fluoro-benzyl)-3-oxo-2,3-dihydro-1H-isoindol-1-yl]-propionylamino}-pyridin-3-yl)-acrylic acid ethyl ester]
20 | 420 | 15 | 114 |  | N#Cc1ccc(NC(=O)CCC2c3c(F)cccc3C(=O)N2Cc2ccc(F)cc2)nc1 (stereo not shown) [Compound 47, N-(5-Cyano-pyridin-2-yl)-3-[7-fluoro-2-(4-fluoro-benzyl)-3-oxo-2,3-dihydro-1H-isoindol-1-yl]-propionamide]
21 | 17000 |  | 62.8 |  | CS(=O)(=O)c1ccc(NC(=O)CCC2c3c(F)cccc3C(=O)N2Cc2ccc(F)cc2)nc1 (stereo not shown) [Compound 48, 3-[7-Fluoro-2-(4-fluoro-benzyl)-3-oxo-2,3-dihydro-1H-isoindol-1-yl]-N-(5-methanesulfonyl-pyridin-2-yl)-propionamide]
22 | 60 | 0.34 | 212 |  | CN(C)c1ccc(CN2C(=O)c3cccc(F)c3C2CCC(=O)Nc2ccc(C(=O)O)cn2)cc1 (stereo not shown) [Compound 49, 6-{3-[2-(4-Dimethylamino-benzyl)-7-fluoro-3-oxo-2,3-dihydro-1H-isoindol-1-yl]-propionylamino}-nicotinic acid]
23 |  |  | 38.6 |  | COC(=O)c1ccc(NC(=O)CC[C@@H]2c3c(F)cccc3C(=O)N2Cc2ccc(F)cc2)nc1 [Compound 50, (R)-6-{3-[7-Fluoro-2-(4-fluoro-benzyl)-3-oxo-2,3-dihydro-1H-isoindol-1-yl]-propionylamino}-nicotinic acid methyl ester]
